Test results published in US12606528B2, “Methods and materials for inhibiting NF-kB activity” (University of Pittsburgh - Of the Commonwealth System of …, priority 2019, dated 2026).
Like-named read-outs stand apart in the source and are kept apart here.

Experiments:
NF-κB = NF-κB assay: THP1-NF-κB-LUC cells, LPS-stimulated secreted luciferase; assay type: cell-based; settings: THP1-NF-κB-LUC cells, read-out: IC50 (NF-κB assay)
Procedure, shortened: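 THP1-NF-κB-LUC cells (25k/well) were pretreated with compounds for 2 h, then stimulated with LPS (10 ng/mL) for 18 h. Secreted luciferase was measured and normalized to vehicle, and IC50 was fitted from the concentration series.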

TNF release = experiment: TNF assay: TNF release from LPS-stimulated human PBMCs (TNF ELISA); assay type: cell-based; settings: PBMC, read-out: IC50 (TNF assay)
Procedure, shortened: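 TNF ELISA on supernatants read-out; cells were 10k human PBMCs/well given LPS at 10 ng/mL for 18 h after a 2 h compound pre-incubation across a concentration series, with IC50 derived for suppression of TNF secretion.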

[1] = compounds 2 hours before LPS (10 ng/mL) for 18 hours, secreted luciferase
[2] = human PBMCs, compounds 2 hours before LPS (10 ng/ml) for 18 hours, supernatant TNF ELISA

SMILES | IC50 (NF-κB; [1]) [nM] | IC50 (TNF release; [2]) [nM] | IC50 (NF-κB; LPS-stimulated) [nM] | IC50 (TNF release; LPS-stimulated human PBMCs, TNF ELISA) [nM]
CC1Oc2cc(S(=O)(=O)Nc3ccc(F)cc3F)c(Br)cc2N(C)C1=O (centres unmarked) [BC19799] | 100 to 1000 | 1000 to 10000 |  | 
CCc1cccc(NS(=O)(=O)c2cc(Br)cc3c2OC(C)C(=O)N3C)c1 (centres unmarked) [BC19900] | 100 to 1000 | > 10000 |  | 
CCc1cccc(NS(=O)(=O)c2cc3c(cc2Br)N(C)C(=O)C(C)O3)c1 (centres unmarked) [BC19901] | 1000 to 10000 | > 10000 |  | 
CC1Oc2c(cc(Br)cc2S(=O)(=O)Nc2cccc(F)c2)N(C)C1=O (centres unmarked) [BC19902] | < 100 | > 10000 |  | 
CC1Oc2cc(S(=O)(=O)Nc3cccc(F)c3)c(Br)cc2N(C)C1=O (centres unmarked) [BC19903] | 100 to 1000 | > 10000 |  | 
CC1Oc2c(cc(Br)cc2S(=O)(=O)Nc2cccc(Cl)c2)N(C)C1=O (centres unmarked) [BC19904] | < 100 | > 10000 |  | 
CC1Oc2cc(S(=O)(=O)Nc3cccc(Cl)c3)c(Br)cc2N(C)C1=O (centres unmarked) [BC19905] | 1000 to 10000 | > 10000 |  | 
Cc1ccc(NS(=O)(=O)c2cc(Br)cc3c2OC(C)C(=O)N3C)cc1 (centres unmarked) [BC19906] | < 100 | 1000 to 10000 |  | 
CC1Oc2cc(S(=O)(=O)Nc3ccc(F)cc3Cl)c(Br)cc2N(C)C1=O (centres unmarked) [BC19907] | > 10000 | > 10000 |  | 
CC1Oc2c(cc(Br)cc2S(=O)(=O)Nc2ccc(F)cc2Cl)N(C)C1=O (centres unmarked) [BC19908] | < 100 | > 10000 |  | 
COc1ccc(NS(=O)(=O)c2cc(Br)cc3c2OC(C)C(=O)N3C)cc1Cl (centres unmarked) [BC19909] | > 10000 | > 10000 |  | 
CC1Oc2cc(S(=O)(=O)Nc3ccc(F)cc3)c(Br)cc2N(C)C1=O (centres unmarked) [BC19910] | 1000 to 10000 | > 10000 |  | 
CC1Oc2c(cc(Br)cc2S(=O)(=O)Nc2ccc(F)cc2)N(C)C1=O (centres unmarked) [BC19911] | < 100 | > 10000 |  | 
Cc1ccc(NS(=O)(=O)c2cc3c(cc2Br)N(C)C(=O)C(C)O3)cc1 (centres unmarked) [BC19912] | > 10000 | > 10000 |  | 
CCC1Oc2c(cc(Br)cc2S(=O)(=O)Nc2ccc(F)cc2F)N(C)C1=O (centres unmarked) [BC19913] | < 100 | > 10000 |  | 
CCC1Oc2cc(S(=O)(=O)Nc3ccc(F)cc3F)c(Br)cc2N(C)C1=O (centres unmarked) [BC19914] | 100 to 1000 | > 10000 |  | 
CCc1cccc(NS(=O)(=O)c2cc(Br)cc3c2OC(CC)C(=O)N3C)c1 (centres unmarked) [BC19915] | < 100 | > 10000 |  | 

SMILES | IC50 (NF-κB; [1]) [nM] | IC50 (TNF release; [2]) [nM] | IC50 (NF-κB; LPS-stimulated) [nM] | IC50 (TNF release; LPS-stimulated human PBMCs, TNF ELISA) [nM]
CCc1cccc(NS(=O)(=O)c2cc3c(cc2Br)N(C)C(=O)C(CC)O3)c1 (centres unmarked) [BC19916] | 1000 to 10000 | > 10000 |  | 
O=C(O)c1cc2c(c(NS(=O)(=O)c3ccc(F)c(F)c3)c1)N1CCCC1C(=O)N2 (centres unmarked) [BC19917] |  |  | > 10000 | > 10000
COc1ccc(NS(=O)(=O)c2cc3c(cc2Br)N(C)C(=O)C(C)O3)cc1Cl (centres unmarked) [BC19919] | > 10000 | > 10000 |  | 
CC1Oc2cc(S(=O)(=O)Nc3ccc(C#N)cc3)c(Br)cc2N(C)C1=O (centres unmarked) [BC19920] | 100 to 1000 | > 10000 |  | 
CCC1Oc2c(cc(Br)cc2S(=O)(=O)Nc2ccc(OC(F)(F)F)cc2)N(C)C1=O (centres unmarked) [BC19921] | < 100 | 1000 to 10000 |  | 
CCC1Oc2cc(S(=O)(=O)Nc3ccc(OC(F)(F)F)cc3)c(Br)cc2N(C)C1=O (centres unmarked) [BC19922] | < 100 | > 10000 |  | 
CCC1Oc2c(cc(Br)cc2S(=O)(=O)Nc2ccc(C)c(F)c2)N(C)C1=O (centres unmarked) [BC19923] | < 100 | 1000 to 10000 |  | 
CCC1Oc2cc(S(=O)(=O)Nc3ccc(C)c(F)c3)c(Br)cc2N(C)C1=O (centres unmarked) [BC19924] | < 100 | 1000 to 10000 |  | 
CCC1Oc2c(cc(Br)cc2S(=O)(=O)Nc2ccc(F)c(F)c2)N(C)C1=O (centres unmarked) [BC19925] | < 100 | 1000 to 10000 |  | 
CCC1Oc2cc(S(=O)(=O)Nc3ccc(F)c(F)c3)c(Br)cc2N(C)C1=O (centres unmarked) [BC19926] | < 100 | > 10000 |  | 
CCC1Oc2c(cc(Br)cc2S(=O)(=O)Nc2ccccc2)N(C)C1=O (centres unmarked) [BC19927] | < 100 | 1000 to 10000 |  | 
CCC1Oc2cc(S(=O)(=O)Nc3ccccc3)c(Br)cc2N(C)C1=O (centres unmarked) [BC19928] | 100 to 1000 | 1000 to 10000 |  | 
CCC1Oc2c(cc(Br)cc2S(=O)(=O)Nc2ccc(Cl)cc2)N(C)C1=O (centres unmarked) [BC19929] | < 100 | 1000 to 10000 |  | 
CCC1Oc2cc(S(=O)(=O)Nc3ccc(Cl)cc3)c(Br)cc2N(C)C1=O (centres unmarked) [BC19930] | 100 to 1000 | > 10000 |  | 
CCc1ccc(NS(=O)(=O)c2cc(Br)cc3c2OC(CC)C(=O)N3C)cc1 (centres unmarked) [BC19931] | < 100 | 1000 to 10000 |  | 
CCc1ccc(NS(=O)(=O)c2cc3c(cc2Br)N(C)C(=O)C(CC)O3)cc1 (centres unmarked) [BC19932] | < 100 | 1000 to 10000 |  | 
CCC1Oc2c(cc(Br)cc2S(=O)(=O)Nc2ccc(C(C)C)cc2)N(C)C1=O (centres unmarked) [BC19933] | < 100 | 1000 to 10000 |  | 
